Results taken from PubChem BioAssay (NCI).
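A five-concentration, 48-hour dose response in 96-well plates underlies each endpoint, interpolated linearly between surrounding concentrations. TGI denotes the concentration required for complete inhibition of growth.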

How the values were obtained:
Assay in all cases: DTP human tumour cell line panel, 48 h
M14 melanoma = test system: M14 melanoma
A498 renal = test system: A498 renal
IGROV1 ovarian = test system: IGROV1 ovarian
CAKI-1 renal = test system: CAKI-1 renal
OVCAR-4 ovarian = test system: OVCAR-4 ovarian
OVCAR-5 ovarian = test system: OVCAR-5 ovarian
SN12C renal = test system: SN12C renal
SK-MEL-5 melanoma = test system: SK-MEL-5 melanoma
NCI-H226 lung = test system: NCI-H226 lung
HS 578T breast = test system: HS 578T breast

SMILES	TGI (M14 melanoma) [µM]	TGI (A498 renal) [µM]	TGI (IGROV1 ovarian) [µM]	TGI (CAKI-1 renal) [µM]	TGI (OVCAR-4 ovarian) [µM]	TGI (OVCAR-5 ovarian) [µM]	TGI (SN12C renal) [µM]	TGI (SK-MEL-5 melanoma) [µM]	TGI (NCI-H226 lung) [µM]	TGI (HS 578T breast) [µM]
C/C(N=NS(=O)(=O)c1ccc(C)cc1)=C1\C=CC=CN1O	> 100	> 100	> 100	> 100	> 100	> 100	> 100	> 100		
C[C@@]1(OC(=O)c2cc([N+](=O)[O-])cc([N+](=O)[O-])c2)C[C@@H]2CCCC[C@@H]21	> 100		> 100	> 100	> 100	> 100	> 100	> 100	> 100	> 100
CC(=O)N(CC(=O)C(=O)NNc1ccoc1)c1ccc(Cl)cc1	> 100		> 100	> 100	> 100	> 100	> 100	> 100	> 100	> 100
O=C(Nc1nc2ncn(CCO)c2c(=O)[nH]1)c1ccccc1	> 100	> 100	> 100	> 100	> 100	> 100	> 100	> 100	> 100	
C[C@H](NC(=O)CNC(=O)CCCCCC(=O)NCC(=O)N[C@@H](C)C(=O)OCc1ccccc1)C(=O)OCc1ccccc1	> 100		> 100	> 100	> 100	> 100	> 100		> 100	> 100
Nc1c(Cl)cc(-c2nc3ccccc3s2)cc1Cl	> 100		> 100				> 100	> 100	> 100	> 100
O=c1cc(CNC2CC3CCC2C3)[nH]c(=O)[nH]1 (stereo not drawn)	> 100	> 100	> 100	> 100	> 100	> 100	> 100	> 100		> 100
COC(=O)c1ccc(C=C(C#N)C#N)cc1	32.7	> 100	73.8	74.7	47	> 100	41.6	33.1	80.4	
Cc1ccc(/N=N/C(=NNC(=O)c2ccc(C)cc2)c2ccc(N(C)C)cc2)cc1	60.4		> 100	48.8	54	> 100	68.5	30.7	68.4	> 100
O=c1ccn(/C=C/C(O)C(O)CO)c(=O)[nH]1 (stereo not drawn)		> 100	> 100	> 100	> 100	> 100	> 100	> 100	> 100	
O/N=C1/CCCc2nonc21	> 100		> 100	> 100	> 100	> 100	> 100	> 100	> 100	> 100
CS(=O)(=O)C1(Br)S(=O)(=O)OCCOS1(=O)=O	> 100	> 100	> 100		> 100	> 100	> 100	> 100	> 100	
CCOP(=O)(OCC)C(Cc1ccc(Cl)cc1)NS(=O)(=O)c1ccc(C)cc1 (stereo not drawn)	> 100	> 100	> 100	> 100	> 100	> 100	> 100	> 100		> 100
CC(C)CCC[C@@H](C)[C@H]1CC[C@H]2C3=C[C@H](OS(=O)(=O)O)[C@@]4(O)C[C@@H](O)CC[C@]4(C)[C@@]3(O)CC[C@]12C	> 100	> 100	> 100	> 100	> 100	> 100	> 100	> 100	> 100	
CSc1ccc2c(cc1=O)C(NC(=O)c1ccc(C#N)cc1)CCc1cc(O)c(O)c(O)c1-2 (stereo not drawn)	89.6	> 100			27.2	> 100	40.3	71.5	59.1	
O=C1CSC(c2ccccc2O)N1c1ccc(Oc2ccc(Cl)cc2)c(Cl)c1 (stereo not drawn)	76.9		77.4	74	66.1	81.8	39.5	33.8	> 100	38
CCOC(=O)/C=C/C1(CCOC(C)=O)CCCCC1	> 10		> 10	> 10	> 10	> 10	> 10	> 10	> 10	> 10
Nc1nc2ncn(CC(O)CO)c2c(=O)[nH]1 (stereo not drawn)	> 100	> 100	> 100	> 100	> 100	> 100	> 100	> 100	> 100	
